Common to all, as to assay type: cell-based
The subject of one assay is T98G. As to the kind of experiment: CCK-8 cell viability assay, T98G. Conditions: CCK-8, 72 h, mean ± SD of three independent experiments. The method, then:
(§1) The U87MG cell line (catalogue iCell-h224) and U251MG cell line (catalogue iCell-h219) were purchased from iCell Bioscience Inc (Shanghai) cell bank. T98G cell line was obtained from Yining Zhang’s group. All cells were cultured in DMEM supplemented with 10% (v/v) FBS and penicillin-streptomycin in a humidified incubator at 37 °C under 5% CO2. The different compounds were dissolved in DMSO at the concentration of 10 mM and diluted in serum-free medium. The GBM cells were seeded into 96-well microplates at the density of 6000 cells/well and incubated for 24 h. Fresh media supplemented with different concentrations of the compounds were added, and the cells were cultured for 72 h. The CCK-8 reagent (TargetMol, C0005) was added to each well and the cells were incubated for 4 h at 37 °C. […] the absorbance was measured at […] using a microplate reader (Genios Tecan). An untreated control group was included and its viability was set as 100%. IC50 value of the two probes was calculated using GraphPad Prism 5.0.

The test system of another assay is U251. The assay can be described thus: CCK-8 cell viability assay, U251. Conditions: CCK-8, 72 h, mean ± SD of three independent experiments. The protocol:
as §1
(Tetrazolium assays rely on reduction of a dye to a coloured formazan, in cell work by metabolically active cells.)

In the next assay the test system is U87. As to the kind of experiment: CCK-8 cell viability assay, U87. Conditions: CCK-8, 72 h, mean ± SD of three independent experiments. The method, then:
as §1

In a further assay the test system is LO2. As to the kind of experiment: CCK-8 cytotoxicity, normal human cell line LO2.
Setting [1] is: L02, mean ± SD of three independent experiments.

As for `COc1ccc(C=C2SC(=NN=CC3=CCC4CC3C4(C)C)N(C)C2=O)cc1` (stereo not shown) [C1, 2-(((6,6-Dimethylbicyclo[3.1.1]hept-2-en-2-yl)methylene)hydrazineylidene)-5–(4-methoxybenzylidene)-3-methylthiazolidin-4-one], the IC50 with T98G (Homo sapiens, T98G, 72 h) was 9.93 ± 0.11 µM; in the assay on U251 (Homo sapiens, U-251, 72 h), 12.1 ± 0.31 µM; in the assay with U87 (Homo sapiens, U-87 MG, 72 h), 13.5 ± 0.43 µM; with LO2 (setting [1]), greater than 50 µM.
`COc1ccc(C=C2SC(=NN=CC3=CCC4CC3C4(C)C)N(C)C2=O)cc1` (stereo not shown) [C2, 2-(((6,6-Dimethylbicyclo[3.1.1]hept-2-en-2-yl)methylene)hydrazineylidene)-5–(4-methoxybenzylidene)-3-methylthiazolidin-4-one]: the half-maximal inhibitory concentration (IC50) in the assay on T98G was 10.1 ± 0.8 µM; in the assay with U251, 14 ± 0.71 µM; with U87, 11.2 ± 0.26 µM; in the assay on LO2 (mean ± SD of three independent experiments), greater than 50 µM.
As to `CSc1ccc(C=C2SC(=NN=CC3=CCC4CC3C4(C)C)N(C)C2=O)cc1` (stereo not shown) [C3, 2-(((6,6-Dimethylbicyclo[3.1.1]hept-2-en-2-yl)methylene)hydrazineylidene)-3-methyl-5–(4-(methylthio)benzylidene)thiazolidin-4-one], the half-maximal inhibitory concentration (IC50) in the assay with T98G (Homo sapiens, T98G, 72 h) was 16.7 ± 0.67 µM; in the assay with U251 (Homo sapiens, U-251, 72 h), 15.2 ± 0.32 µM; with U87 (Homo sapiens, U-87 MG, 72 h) it was 12.3 ± 0.65 µM; in the assay with LO2 (setting [1]), greater than 50 µM.
As for `CN1C(=O)C(=Cc2ccc(N(C)C)cc2)SC1=NN=CC1=CCC2CC1C2(C)C` (stereo not shown) [C4, 5–(4-(Dimethylamino)benzylidene)-2-(((6,6-dimethylbicyclo[3.1.1]hept-2-en-2-yl)methylene)hydrazineylidene)-3-methylthiazolidin-4-one], the IC50 with T98G (Homo sapiens, T98G, 72 h) is 8.8 ± 0.31 µM; in the assay on U251 (Homo sapiens, U-251, 72 h) it was 9.7 ± 0.64 µM; in the assay on U87 (Homo sapiens, U-87 MG, 72 h), 7.56 ± 0.76 µM; in the assay with LO2 (setting [1]) it was greater than 50 µM.
Regarding `COc1cc(C=C2SC(=NN=CC3=CCC4CC3C4(C)C)N(C)C2=O)ccc1O` (stereo not shown) [C6, 2-(((6,6-Dimethylbicyclo[3.1.1]hept-2-en-2-yl)methylene)hydrazineylidene)-5–(4-hydroxy-3-methoxybenzylidene)-3-methylthiazolidin-4-one], the half-inhibitory concentration (IC50) in the assay on T98G (Homo sapiens, T98G, 72 h) was 7.5 ± 0.98 µM; in the assay with U251 (Homo sapiens, U-251, 72 h), 10.2 ± 0.65 µM; in the assay with U87 (Homo sapiens, U-87 MG, 72 h), 9.37 ± 0.43 µM; in the assay with LO2 (setting [1]), greater than 50 µM.
With `CN1C(=O)C(=Cc2ccc(Cl)cc2)SC1=NN=CC1=CCC2CC1C2(C)C` (stereo not shown) [C7, 5–(4-Chlorobenzylidene)-2-(((6,6-dimethylbicyclo[3.1.1]hept-2-en-2-yl)methylene) hydrazineylidene)-3-methylthiazolidin-4-one], the IC50 in the assay with T98G (Homo sapiens, T98G, 72 h) is 33.4 ± 0.77 µM; in the assay on U251 (Homo sapiens, U-251, 72 h), 36.8 ± 0.43 µM; with U87 (Homo sapiens, U-87 MG, 72 h) it was greater than 50 µM; in the assay on LO2 (setting [1]), greater than 50 µM.
On to `CCN(CC)c1ccc(C=C2SC(=NN=CC3=CCC4CC3C4(C)C)N(C)C2=O)cc1` (stereo not shown) [C8, 5–(4-(Diethylamino)benzylidene)-2-(((6,6-dimethylbicyclo[3.1.1]hept-2-en-2-yl)methylene) hydrazineylidene)-3-methylthiazolidin-4-one], for which the IC50 is 38.1 ± 0.78 µM with T98G (Homo sapiens, T98G, 72 h); 27.2 ± 0.62 µM with U251 (Homo sapiens, U-251, 72 h); 42.2 ± 0.46 µM in the assay on U87 (Homo sapiens, U-87 MG, 72 h); greater than 50 µM with LO2 (setting [1]).
On to `Cc1ccc(O)c(C=C2SC(=NN=CC3=CCC4CC3C4(C)C)N(C)C2=O)c1` (stereo not shown) [C9, 2-(((6,6-Dimethylbicyclo[3.1.1]hept-2-en-2-yl)methylene)hydrazineylidene)-5–(2-hydroxy-5-methylbenzylidene)-3-methylthiazolidin-4-one], for which the IC50 in the assay with T98G (Homo sapiens, T98G, 72 h) is 32.11 ± 0.21 µM; in the assay with U251 (Homo sapiens, U-251, 72 h), 36.7 ± 0.32 µM; in the assay with U87 (Homo sapiens, U-87 MG, 72 h), 34.1 ± 0.57 µM; in the assay with LO2 (setting [1]), greater than 50 µM.
In the case of `CN1C(=O)C(=Cc2ccc(O)c(Cl)c2)SC1=NN=CC1=CCC2CC1C2(C)C` (stereo not shown) [C10, 5–(3-Chloro-4-hydroxybenzylidene)-2-(((6,6-dimethylbicyclo[3.1.1]hept-2-en-2-yl)methylene)hydrazineylidene)-3-methylthiazolidin-4-one], the IC50 is 8.69 ± 0.17 µM in the assay with T98G (Homo sapiens, T98G, 72 h); 8.29 ± 0.78 µM in the assay on U251 (Homo sapiens, U-251, 72 h); 9.86 ± 0.09 µM in the assay with U87 (Homo sapiens, U-87 MG, 72 h); greater than 50 µM in the assay on LO2 (setting [1]).
In the case of `COc1ccc(C=C2SC(=NN=CC3=CCC4CC3C4(C)C)N(C)C2=O)cc1O` (stereo not shown) [C11, 2-(((6,6-Dimethylbicyclo[3.1.1]hept-2-en-2-yl)methylene)hydrazineylidene)-5–(3-hydroxy-4-methoxybenzylidene)-3-methylthiazolidin-4-one], the half-maximal inhibitory concentration (IC50) with T98G (Homo sapiens, T98G, 72 h) was 12 ± 0.15 µM; in the assay with U251 (Homo sapiens, U-251, 72 h), 14.8 ± 0.1 µM; in the assay with U87 (Homo sapiens, U-87 MG, 72 h), 13.6 ± 0.21 µM; in the assay with LO2 (setting [1]), greater than 50 µM.
On the same counts, the results for `CCOc1cc(C=C2SC(=NN=CC3=CCC4CC3C4(C)C)N(C)C2=O)ccc1O` (stereo not shown) [C12, 2-(((6,6-Dimethylbicyclo[3.1.1]hept-2-en-2-yl)methylene)hydrazineylidene)-5–(3-ethoxy-4-hydroxybenzylidene)-3-methylthiazolidin-4-one] are 7.1 ± 0.51 µM, 8.01 ± 0.79 µM, 9.37 ± 0.35 µM and greater than 50 µM.
On the same counts, the results for `COc1ccc(C=C2SC(=NN=CC3=CCC4CC3C4(C)C)N(C)C2=O)c(O)c1` (stereo not shown) [C13, 2-(((6,6-Dimethylbicyclo[3.1.1]hept-2-en-2-yl)methylene)hydrazineylidene)-5–(2-hydroxy-4-methoxybenzylidene)-3-methylthiazolidin-4-one] are 5.54 ± 0.98 µM, 6.65 ± 0.75 µM, 5.71 ± 0.23 µM and greater than 50 µM.
Consider `CN1C(=O)/C(=C\c2ccc(O)cc2F)SC1NN=CC1=CCC2CC1C2(C)C` (stereo not shown) [C14, 2–(2-((6,6-Dimethylbicyclo[3.1.1]hept-2-en-2-yl)methylene)hydrazineyl)-5-((E)-2-fluoro-4-hydroxybenzylidene)-3-methylthiazolidin-4-one], for which the concentration for half-maximal inhibition (IC50) was 14.8 ± 0.34 µM in the assay with T98G (Homo sapiens, T98G, 72 h); 11.6 ± 0.89 µM in the assay on U251 (Homo sapiens, U-251, 72 h); 14.4 ± 0.73 µM in the assay with U87 (Homo sapiens, U-87 MG, 72 h); greater than 50 µM with LO2 (setting [1]).
On the same counts, the results for `Cc1cc(O)ccc1/C=C1/SC(NN=CC2=CCC3CC2C3(C)C)N(C)C1=O` (stereo not shown) [C15, 2–(2-((6,6-Dimethylbicyclo[3.1.1]hept-2-en-2-yl)methylene)hydrazineyl)-5-((E)-4-hydroxy-2-methylbenzylidene)-3-methylthiazolidin-4-one] are 7.63 ± 0.65 µM, 9.01 ± 0.34 µM, 9.12 ± 0.43 µM and greater than 50 µM.
`Cc1cc(/C=C2/SC(NN=CC3=CCC4CC3C4(C)C)N(C)C2=O)ccc1O` (stereo not shown) [C16, 2–(2-((6,6-Dimethylbicyclo[3.1.1]hept-2-en-2-yl)methylene)hydrazineyl)-5-((E)-4-hydroxy-3-methylbenzylidene)-3-methylthiazolidin-4-one]: the half-maximal inhibitory concentration (IC50) was 6.63 ± 0.32 µM in the assay with T98G (Homo sapiens, T98G, 72 h); 7.14 ± 0.11 µM in the assay with U251 (Homo sapiens, U-251, 72 h); 5.83 ± 0.56 µM in the assay on U87 (Homo sapiens, U-87 MG, 72 h); greater than 50 µM in the assay with LO2 (setting [1]).
Regarding `COc1cc(O)ccc1/C=C1/SC(NN=CC2=CCC3CC2C3(C)C)N(C)C1=O` (stereo not shown) [C17, 2–(2-((6,6-Dimethylbicyclo[3.1.1]hept-2-en-2-yl)methylene)hydrazineyl)-5-((E)-4-hydroxy-2-methoxybenzylidene)-3-methylthiazolidin-4-one], the IC50 in the assay on T98G (Homo sapiens, T98G, 72 h) was 5.1 ± 0.26 µM; in the assay with U251 (Homo sapiens, U-251, 72 h), 6.23 ± 0.41 µM; in the assay on U87 (Homo sapiens, U-87 MG, 72 h), 9.18 ± 0.2 µM; with LO2 (setting [1]), greater than 50 µM.

Usually IC50 stands for the concentration that inhibits the measured activity by half.
